ChEMBL document CHEMBL5226379, “Hypouricemic Actions of the Pericarp of Mangosteen in Vitro and in Vivo” (J Nat Prod, 2023)

Tests used:
Type in all cases: functional
Rattus norvegicus [1] = assay: Anti-hyperuricemic activity against potassium oxonate-induced hyperuricemic Sprague-Dawley rat model assessed as urine volume at 2 mg/kg, po pre-administered via gavage twice daily for 5 times followed by potassium oxonate injection for 1 hrs prior to last dose and measured after 3 hrs; details: time 123 hrs
Rattus norvegicus [2] = assay: Anti-hyperuricemic activity against potassium oxonate-induced hyperuricemic Sprague-Dawley rat model assessed as urinary creatinine level at 2 mg/kg, po pre-administered via gavage twice daily for 5 times followed by potassium oxonate injection for 1 hrs prior to last dose and measured after 3 hrs; details: time 123 hrs
Mus musculus = assay: Hypouricemic activity in potassium oxonate-induced hyperuricemic Kunming mouse model assessed as decrease in serum uric acid level at 4 mg/kg, IG pre-administered with potassium oxonate for one hour followed by compound treatment and measured after 2 hrs by phosphotungstic acid method relative to control; design: scale not given: the % may be the effect or the level left

Which Activity (Rattus norvegicus [1]) does the source give for COc1c(O)cc2oc3cc(O)c(CC=C(C)C)c(O)c3c(=O)c2c1CC=C(C)C [MANGOSTIN] here?
Its Activity is 5.6 mL.

And the Activity (Rattus norvegicus [2])?
The Activity was 0.8 mmol/L.

What about the Activity (Mus musculus) of the same compound?
The Activity was 63%.
